According to patent US6706740B2, “Fungicidal heterocyclic aromatic amides and their compositions, methods of use and preparation” (Dow AgroSciences LLC, priority 1999, dated 2004):

The compounds below were run on Stagonospora nodorum (Leptosphaeria nodorum—LEPTNO) (assay: In vitro fungal growth inhibition, Stagonospora nodorum (LEPTNO)). Conditions: Leptosphaeria; 25 ppm in growth medium; read-out: LEPTNO in vitro Growth Inhibition.
Format: cell-based

| Compound | inhibition at 25 ppm [%] |
| --- | --- |
| COc1ccnc(C(=O)N[C@H]2COC(=O)[C@H](Cc3ccccc3)[C@@H](OC(=O)C(C)C)[C@H](C)OC2=O)c1OC(=O)Oc1ccccc1 [Compound 697] | > 80 |
| COc1ccnc(C(=O)N[C@H]2COC(=O)[C@H](Cc3ccccc3)[C@@H](OC(=O)C(C)C)[C@H](C)OC2=O)c1OC(=O)c1cccc(C(F)(F)F)c1 [Compound 640] | > 80 |
| COc1ccnc(C(=O)NC(C)C(=O)OCCCCCc2ccccc2)c1O (stereo not drawn) [Compound 370] | > 80 |
| COc1ccnc(C(=O)N[C@H]2COC(=O)[C@H](Cc3ccccc3)[C@@H](OC(=O)C(C)C)[C@H](C)OC2=O)c1OC(=O)c1ccc(Cl)c(Cl)c1 [Compound 644] | > 80 |
| COc1ccnc(C(=O)N[C@H]2COC(=O)[C@H](Cc3ccccc3)[C@@H](OC(=O)C(C)C)[C@H](C)OC2=O)c1OC(=O)c1ccc(F)cc1F [Compound 638] | > 80 |
| COc1ccnc(C(=O)N[C@H]2COC(=O)[C@H](Cc3ccccc3)[C@@H](OC(=O)C(C)C)[C@H](C)OC2=O)c1OC(=O)c1ccccc1F [Compound 636] | > 80 |
| COc1ccnc(C(=O)N[C@H]2COC(=O)[C@H](Cc3ccccc3)[C@@H](OC(=O)C(C)C)[C@H](C)OC2=O)c1OC(=O)c1c(-c2c(Cl)cccc2Cl)noc1C [Compound 677] | > 80 |
| COc1ccnc(C(=O)NCCCCCCCCCCC(=O)Oc2cccc(NC(C)=O)c2)c1O [Compound 363] | < 80 |

What follows are compounds tested on Mycosphaerella graminicola (Septoria tritici—SEPTTR) (assay: In vitro fungal growth inhibition, Mycosphaerella graminicola (SEPTTR)). Conditions: Zymoseptoria tritici; 25 ppm in growth medium; read-out: SEPTTR in vitro Growth Inhibition.
Format: cell-based

| Compound | inhibition at 25 ppm [%] |
| --- | --- |
| COc1ccnc(C(=O)N[C@H]2COC(=O)[C@H](Cc3ccccc3)[C@@H](OC(=O)C(C)C)[C@H](C)OC2=O)c1OC(=O)Oc1ccccc1 [Compound 697] | < 80 |
| COc1ccnc(C(=O)N[C@H]2COC(=O)[C@H](Cc3ccccc3)[C@@H](OC(=O)C(C)C)[C@H](C)OC2=O)c1OC(=O)c1cccc(C(F)(F)F)c1 [Compound 640] | < 80 |
| COc1ccnc(C(=O)NC(C)C(=O)OCCCCCc2ccccc2)c1O (stereo not drawn) [Compound 370] | < 80 |
| COc1ccnc(C(=O)N[C@H]2COC(=O)[C@H](Cc3ccccc3)[C@@H](OC(=O)C(C)C)[C@H](C)OC2=O)c1OC(=O)c1ccc(Cl)c(Cl)c1 [Compound 644] | < 80 |
| COc1ccnc(C(=O)N[C@H]2COC(=O)[C@H](Cc3ccccc3)[C@@H](OC(=O)C(C)C)[C@H](C)OC2=O)c1OC(=O)c1ccc(F)cc1F [Compound 638] | < 80 |
| COc1ccnc(C(=O)N[C@H]2COC(=O)[C@H](Cc3ccccc3)[C@@H](OC(=O)C(C)C)[C@H](C)OC2=O)c1OC(=O)c1ccccc1F [Compound 636] | < 80 |
| COc1ccnc(C(=O)N[C@H]2COC(=O)[C@H](Cc3ccccc3)[C@@H](OC(=O)C(C)C)[C@H](C)OC2=O)c1OC(=O)c1c(-c2c(Cl)cccc2Cl)noc1C [Compound 677] | < 80 |
| COc1ccnc(C(=O)NCCCCCCCCCCC(=O)Oc2cccc(NC(C)=O)c2)c1O [Compound 363] | < 80 |

Each compound was assayed on Rhizoctonia solani (RHIZSO) (assay: microbe, parasite or virus in culture). Conditions: Rhizoctonia solani, read-out: RHIZSO in vitro Growth Inhibition.
Format: cell-based

| Compound | inhibition at 25 ppm [%] |
| --- | --- |
| COc1ccnc(C(=O)N[C@H]2COC(=O)[C@H](Cc3ccccc3)[C@@H](OC(=O)C(C)C)[C@H](C)OC2=O)c1OC(=O)Oc1ccccc1 [Compound 697] | < 80 |
| COc1ccnc(C(=O)N[C@H]2COC(=O)[C@H](Cc3ccccc3)[C@@H](OC(=O)C(C)C)[C@H](C)OC2=O)c1OC(=O)c1cccc(C(F)(F)F)c1 [Compound 640] | < 80 |
| COc1ccnc(C(=O)NC(C)C(=O)OCCCCCc2ccccc2)c1O (stereo not drawn) [Compound 370] | < 80 |
| COc1ccnc(C(=O)N[C@H]2COC(=O)[C@H](Cc3ccccc3)[C@@H](OC(=O)C(C)C)[C@H](C)OC2=O)c1OC(=O)c1ccc(Cl)c(Cl)c1 [Compound 644] | < 80 |
| COc1ccnc(C(=O)N[C@H]2COC(=O)[C@H](Cc3ccccc3)[C@@H](OC(=O)C(C)C)[C@H](C)OC2=O)c1OC(=O)c1ccc(F)cc1F [Compound 638] | < 80 |
| COc1ccnc(C(=O)N[C@H]2COC(=O)[C@H](Cc3ccccc3)[C@@H](OC(=O)C(C)C)[C@H](C)OC2=O)c1OC(=O)c1ccccc1F [Compound 636] | < 80 |
| COc1ccnc(C(=O)N[C@H]2COC(=O)[C@H](Cc3ccccc3)[C@@H](OC(=O)C(C)C)[C@H](C)OC2=O)c1OC(=O)c1c(-c2c(Cl)cccc2Cl)noc1C [Compound 677] | < 80 |
| COc1ccnc(C(=O)NCCCCCCCCCCC(=O)Oc2cccc(NC(C)=O)c2)c1O [Compound 363] | < 80 |

Each compound was assayed on Phytophthora infestans (PHYTIN) (assay: microbe, parasite or virus in culture). Conditions: Phytophthora infestans, read-out: PHYTIN in vitro Growth Inhibition.
Format: cell-based

| Compound | inhibition at 25 ppm [%] |
| --- | --- |
| COc1ccnc(C(=O)N[C@H]2COC(=O)[C@H](Cc3ccccc3)[C@@H](OC(=O)C(C)C)[C@H](C)OC2=O)c1OC(=O)Oc1ccccc1 [Compound 697] | < 80 |
| COc1ccnc(C(=O)N[C@H]2COC(=O)[C@H](Cc3ccccc3)[C@@H](OC(=O)C(C)C)[C@H](C)OC2=O)c1OC(=O)c1cccc(C(F)(F)F)c1 [Compound 640] | < 80 |
| COc1ccnc(C(=O)NC(C)C(=O)OCCCCCc2ccccc2)c1O (stereo not drawn) [Compound 370] | < 80 |
| COc1ccnc(C(=O)N[C@H]2COC(=O)[C@H](Cc3ccccc3)[C@@H](OC(=O)C(C)C)[C@H](C)OC2=O)c1OC(=O)c1ccc(Cl)c(Cl)c1 [Compound 644] | < 80 |
| COc1ccnc(C(=O)N[C@H]2COC(=O)[C@H](Cc3ccccc3)[C@@H](OC(=O)C(C)C)[C@H](C)OC2=O)c1OC(=O)c1ccc(F)cc1F [Compound 638] | < 80 |
| COc1ccnc(C(=O)N[C@H]2COC(=O)[C@H](Cc3ccccc3)[C@@H](OC(=O)C(C)C)[C@H](C)OC2=O)c1OC(=O)c1ccccc1F [Compound 636] | < 80 |
| COc1ccnc(C(=O)N[C@H]2COC(=O)[C@H](Cc3ccccc3)[C@@H](OC(=O)C(C)C)[C@H](C)OC2=O)c1OC(=O)c1c(-c2c(Cl)cccc2Cl)noc1C [Compound 677] | < 80 |
| COc1ccnc(C(=O)NCCCCCCCCCCC(=O)Oc2cccc(NC(C)=O)c2)c1O [Compound 363] | < 80 |

What follows are compounds tested on Ustilago maydis (USTIMA) (assay: microbe, parasite or virus in culture). Conditions: Mycosarcoma maydis, read-out: USTIMA in vitro Growth Inhibition.
Format: cell-based

| Compound | inhibition at 25 ppm [%] |
| --- | --- |
| COc1ccnc(C(=O)N[C@H]2COC(=O)[C@H](Cc3ccccc3)[C@@H](OC(=O)C(C)C)[C@H](C)OC2=O)c1OC(=O)Oc1ccccc1 [Compound 697] | < 80 |
| COc1ccnc(C(=O)N[C@H]2COC(=O)[C@H](Cc3ccccc3)[C@@H](OC(=O)C(C)C)[C@H](C)OC2=O)c1OC(=O)c1cccc(C(F)(F)F)c1 [Compound 640] | < 80 |
| COc1ccnc(C(=O)NC(C)C(=O)OCCCCCc2ccccc2)c1O (stereo not drawn) [Compound 370] | < 80 |
| COc1ccnc(C(=O)N[C@H]2COC(=O)[C@H](Cc3ccccc3)[C@@H](OC(=O)C(C)C)[C@H](C)OC2=O)c1OC(=O)c1ccc(Cl)c(Cl)c1 [Compound 644] | < 80 |
| COc1ccnc(C(=O)N[C@H]2COC(=O)[C@H](Cc3ccccc3)[C@@H](OC(=O)C(C)C)[C@H](C)OC2=O)c1OC(=O)c1ccc(F)cc1F [Compound 638] | < 80 |
| COc1ccnc(C(=O)N[C@H]2COC(=O)[C@H](Cc3ccccc3)[C@@H](OC(=O)C(C)C)[C@H](C)OC2=O)c1OC(=O)c1ccccc1F [Compound 636] | < 80 |
| COc1ccnc(C(=O)N[C@H]2COC(=O)[C@H](Cc3ccccc3)[C@@H](OC(=O)C(C)C)[C@H](C)OC2=O)c1OC(=O)c1c(-c2c(Cl)cccc2Cl)noc1C [Compound 677] | < 80 |
| COc1ccnc(C(=O)NCCCCCCCCCCC(=O)Oc2cccc(NC(C)=O)c2)c1O [Compound 363] | < 80 |

The compounds below were run on Magnaporthe grisea (Pyricularia oryzae—PYRIOR) (assay: microbe, parasite or virus in culture). Conditions: Pyricularia oryzae, read-out: PYRIOR in vitro Growth Inhibition.
Format: cell-based

| Compound | inhibition at 25 ppm [%] |
| --- | --- |
| COc1ccnc(C(=O)N[C@H]2COC(=O)[C@H](Cc3ccccc3)[C@@H](OC(=O)C(C)C)[C@H](C)OC2=O)c1OC(=O)Oc1ccccc1 [Compound 697] | < 80 |
| COc1ccnc(C(=O)N[C@H]2COC(=O)[C@H](Cc3ccccc3)[C@@H](OC(=O)C(C)C)[C@H](C)OC2=O)c1OC(=O)c1cccc(C(F)(F)F)c1 [Compound 640] | < 80 |
| COc1ccnc(C(=O)NC(C)C(=O)OCCCCCc2ccccc2)c1O (stereo not drawn) [Compound 370] | < 80 |
| COc1ccnc(C(=O)N[C@H]2COC(=O)[C@H](Cc3ccccc3)[C@@H](OC(=O)C(C)C)[C@H](C)OC2=O)c1OC(=O)c1ccc(Cl)c(Cl)c1 [Compound 644] | < 80 |
| COc1ccnc(C(=O)N[C@H]2COC(=O)[C@H](Cc3ccccc3)[C@@H](OC(=O)C(C)C)[C@H](C)OC2=O)c1OC(=O)c1ccc(F)cc1F [Compound 638] | < 80 |
| COc1ccnc(C(=O)N[C@H]2COC(=O)[C@H](Cc3ccccc3)[C@@H](OC(=O)C(C)C)[C@H](C)OC2=O)c1OC(=O)c1ccccc1F [Compound 636] | < 80 |
| COc1ccnc(C(=O)N[C@H]2COC(=O)[C@H](Cc3ccccc3)[C@@H](OC(=O)C(C)C)[C@H](C)OC2=O)c1OC(=O)c1c(-c2c(Cl)cccc2Cl)noc1C [Compound 677] | < 80 |
| COc1ccnc(C(=O)NCCCCCCCCCCC(=O)Oc2cccc(NC(C)=O)c2)c1O [Compound 363] | > 80 |
